According to paper doi:10.1101/2023.05.15.540887, “Comparative analysis of drug-like EP300/CREBBP acetyltransferase inhibitors” (bioRxiv, 2023):
“And” between values parts separate entries of the source, which are not always exact repeats. Equal entries are not always repeated.

Columns and labels:
[1] = system: histone H3 acetylation in T-47D cells; experiment: Quantitative LC-MS analysis of histone H3 acetylation in T-47D cells; type: cell-based, human; conditions: 24 h
Description: In principle the phenotype elicited by any single small molecule can be due to either an on- or off-target effect; however, if multiple chemically distinct small molecules designed to target a single gene all elicit the same phenotype, one’s confidence in their on-target mechanism becomes greater. As such, we sought to apply our knowledge of the comparative potencies of 1-3 to test whether the simplest phenotype caused by EP300/CREBBP inhibitors – cell death – was consistent with their effects on histone acetylation and a putative on-target mechanism. Compounds 1-3 were submitted for analysis in the NCI-60 screen, which has been used since 1990 to analyze the growth inhibitor effects of small molecules across a range of transformed cell lines derived from diverse tissues of origin including colorectal, renal, ovarian, prostate, lung, breast, and central nervous system tumors.[28] […] These trends were further confirmed using an orthogonal ATP-Glo assay in MCF-7 cells (Fig. S2). Subsequently, the COMPARE algorithm was used to compare the patterns of growth inhibition elicited by 1-3 in the NCI-60 assay against the >150,000 compounds analyzed in the screen to date.[29] […] Finally, the specificity of CPI-1612 (3) was directly assessed using quantitative LC-MS analysis of histone acetylation in treated cells,[33] focusing on four abundant histone acetylation markers whose writers are well-characterized: H3K9Ac (written by KAT2A/B), H3K14Ac (KAT7), H3K18Ac (EP300/CREBBP), and H3K23Ac (KAT6A/B; Fig. 3e).[26] […] An increase in the levels of singly modified H3K23Ac peptide coincided with specific loss of H3K18Ac from K18/K23 diacetylated peptide, indicative of orthogonal regulation. Overall, the parallel trends in the biochemical and cellular potencies of EP300/CREBBP inhibitors are consistent with an on-target mechanism for 1-3 and further highlight the relatively high potency of CPI-1612 (3).
T-47D cells were plated at 4 x 10^6 cells per plate in 10 cm dishes in 10 mL of media. After 16-24 h cells were treated with 5, 50, or 500 nM of 3. Compound 3 was dosed from stock solutions equal to 100x the final concentration in RPMI-1640. When necessary additional DMSO was added to maintain a constant concentration of 0.1%. Controls were treated with vehicle DMSO (0.1%). After 24 h, cells were washed with 5 mL ice cold 1x PBS, scraped in 5 mL of 1x PBS, transferred to a pre-chilled 15 mL tube, centrifuged (800 rcf x 5 min), and either snap frozen or immediately processed via the following protocol.^5 Pellets were washed twice and resuspended in 400 µL NIB (15 mM pH 7.5 Tris-HCl, 60 mM KCl, 15 mM NaCl, 5 mM MgCl2, 1 mM CaCl2, 250 mM sucrose, 1X protease inhibitor cocktail [Cell Signaling Technology #5871]), 1 mM DTT, and 10 mM sodium butyrate) with 0.3% IGEPAL CA-630 to lyse cells. Suspensions were transferred into tubes on ice and incubated for >5 min. Nuclei were pelleted (700 rcf, 4 °C , 5 min) and the supernatant discarded. Pelleted nuclei were subjected to two cycles of a wash with 500 µL NIB (without IGEPAL CA-630) followed by centrifugation (700 rcf, 4 °C , 5 min) in order to remove all IGEPAL CA-630. Nuclei were re-suspended in 200 µL 0.2 N H2SO4 and rotated at 4 °C for 2 h. Samples were then centrifuged (3,400 rcf, 4 °C , 5 min) and supernatants transferred into new tubes (pellets discarded). 66 µL of 100% TCA was added to each sample (final TCA concentration: 20%) and tubes were inverted once. Histones were precipitated at 4 °C for 16 h, then centrifuged (3,400 rcf, 4 °C , 5 min) and supernatants carefully discarded, with histones now visible as films on the sides and at the bottom of tubes. Histones were subjected to two cycles of washing (0.5 mL of ice-cold acetone + 1% 1M HCl, followed by 1 mL of 100% ice-cold acetone) followed by centrifugation (11,000 rcf, 4 °C , 5 min) after each step. Samples were air dried at room temperature and resuspended in 30 µL of ddH2O. […]

[2] = system: HCT-15; experiment: NCI-60 growth inhibition (sulforhodamine B); type: cell-based, human; conditions: HCT-15 (Colon Cancer), negative log of Molar conc., LCONC -8

C[C@H](CN[C@@H](C(=O)Nc1ccc(-c2cnn(C)c2)cn1)c1ccccc1)c1ccc(C#N)cc1 [CPI-1612]
specificity on histone H3 acetylation marks (H3K9Ac, H3K14Ac, H3K18Ac, H3K23Ac) ([1]; T-47D cells, 5, 50 or 500 nM, LC-MS): affected the abundance of only the EP300/CREBBP-dependent peptides containing H3K18Ac | ratio normalized to largest mean (vehicle or 500 nM), H3_9_17 K9ac (K9Ac) ([1]; T-47D, 5 nM, Rep1-3): 160.77 and 142.38 | ratio normalized to largest mean (vehicle or 500 nM), H3_18_26 K18ac (K18Ac) ([1]; T-47D, 5 nM, Rep1-3): 31.25 and 26.23 and 16.75 | ratio normalized to largest mean (vehicle or 500 nM), summed H3_9_17 K14ac peptides (K14Ac) ([1]; T-47D, 5 nM, Rep1-3): 93.75 and 92.27 and 95.59 | ratio, H3_9_17 K9ac (K9Ac) ([1]; T-47D, 5 nM, Rep1-3): 0.039 and 0.034 | ratio, H3_18_26 K18ac (K18Ac) ([1]; T-47D, 5 nM, Rep1-3): 0.0063 and 0.0053 and 0.0034 | ratio, H3_18_26 K18acK23ac (K18K23Ac) ([1]; T-47D, 5 nM, Rep1-3): 0.0043 and 0.0044 and 0.0039 | ratio, H3_18_26 K23ac (K23Ac) ([1]; T-47D, 5 nM, Rep1-3): 0.2133 and 0.2165 and 0.1842 | ratio, summed H3_9_17 K14ac peptides (K14Ac) ([1]; T-47D, 5 nM, Rep1-3): 0.181 and 0.179 and 0.185 | ratio normalized to largest mean (vehicle or 500 nM), summed H3_9_17 K14ac peptides (K14Ac) ([1]; T-47D, 50 nM, Rep1-3): 92.31 and 100.80 and 86.46 | ratio, H3_18_26 K23ac (K23Ac) ([1]; T-47D, 50 nM, Rep1-3): 0.2929 and 0.2070 and 0.3135 | ratio, summed H3_9_17 K14ac peptides (K14Ac) ([1]; T-47D, 50 nM, Rep1-3): 0.167 and 0.179 and 0.195 | ratio normalized to largest mean (vehicle or 500 nM), H3_18_26 K18ac (K18Ac) ([1]; T-47D, 500 nM, Rep1-3): 2.61 and 1.89 and 1.57 | ratio normalized to largest mean (vehicle or 500 nM), summed H3_9_17 K14ac peptides (K14Ac) ([1]; T-47D, 500 nM, Rep1-3): 103.05 and 88.46 and 106.21 | ratio, H3_18_26 K18ac (K18Ac) ([1]; T-47D, 500 nM, Rep1-3): 0.0005 and 0.000379 and 0.0003 | ratio, H3_18_26 K23ac (K23Ac) ([1]; T-47D, 500 nM, Rep1-3): 0.2977 and 0.3570 and 0.3048 | ratio, summed H3_9_17 K14ac peptides (K14Ac) ([1]; T-47D, 500 nM, Rep1-3): 0.199 and 0.171 and 0.206 | TGI NLOGVALUE [2]: 4 | GI50 ([2]; Homo sapiens, read-out: GI50 NLOGVALUE (converted)): 16.2 nM | IC50 ([2]; Homo sapiens, read-out: IC50 NLOGVALUE (converted)): 53.7 nM | CC50 ([2]; Homo sapiens, read-out: LC50 NLOGVALUE): > 100 µM
